The text below walks through data of US12139481B2, “Compositions comprising macrocycle derivatives incorporating bridged macrocycles and methods of producing and using same” (Southwestern Oklahoma State University, priority 2015, dated 2024).

The subject of experiment [1] is Cryptococcus neoformans ATCC 90113. Briefly: Antimicrobial microdilution assay against Cryptococcus neoformans (modified CLSI/NCCLS, optical density). The following applies: for X more potent than Amphotericin B: C. neoformans, ratio of molar IC50 to Amphotericin B; for C. neoformans IC50 / IC50: in vitro, C. neoformans ATCC 90113; for IC50: read-out: C. neoformans IC50 (mol/L). The experiment is classed as cell-based. In short, it runs like this:
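Fungicidal endpoint taken by subculturing 5 μL from each clear well onto agar, MFC being the lowest concentration with no regrowth. Duplicate wells of serially diluted compound (20% DMSO/saline) in RPMI pH 6.0, read at 630 nm pre- and post-incubation, under modified CLSI methods. IC50 means 50% growth inhibition against controls.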

In experiment [2] the test system is L. donovani promastigotes. Briefly: Antileishmanial Alamar Blue assay on promastigotes. The following applies: for X more potent than Pentamidine: L. donovani, ratio of molar IC50 to Pentamidine; for L. donovani IC50 / IC50: promastigotes, 48 hours, Alamar Blue; for IC50: read-out: L. donavani IC50. Type of experiment: cell-based, Leishmania donovani. The gist of the method:
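Alamar Blue fluorescence (544/590 nm) quantified growth after 48 hours at 26° C of compound-treated promastigotes. Parasites were seeded at 5×10^5/mL in RPMI 1640 plus 10% FCS; drug range 50-3.1 μg/mL, and IC50 derived by plotting percent growth against test concentration.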

The next experiment concerns C. glabrata ATCC 90030. Briefly: Antifungal broth dilution assay against C. glabrata (modified CLSI). The experiment is classed as cell-based, Candida glabrata. As to conditions: for C. glabrata IC50 / IC50: in vitro; for IC50: converted with molecular weight; for X more potent than Amphotericin B: molar IC50 ratio versus amphotericin B. In short, it runs like this: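 Growth read by optical density at 530 nm, duplicate wells, 1% final DMSO. Staphylococcus spp.: Mueller-Hinton pH 7.3, 5.0×10^5 CFU/ml, 35 °C for 16-20 h; Candida spp.: RPMI/dextrose/glutamine/MOPS pH 6.0, 1.5×10^3 CFU/ml, 35 °C for 46-50 h. Reported values are 50% inhibition versus controls, no-growth MIC, and killing MFC/MBC.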
For orientation: In broth dilution the organism is exposed to a series of concentrations in liquid medium.

Experiment [3] concerns Staphylococcus aureus ATCC 29213. As to the kind of experiment: Antibacterial broth dilution assay against S. aureus (modified CLSI). The following applies: for S. aureus IC50 / IC50: in vitro; for IC50: converted with molecular weight; for X more potent than ciprofloxacen: molar IC50 ratio versus ciprofloxacen. Type of experiment: cell-based. Here is the method: (§1) General Experimental Procedures. All organisms were obtained from the American Type Culture Collection (Manassas, VA) and include the fungi Candida albicans ATCC 90028, C. glabrata ATCC 90030, C. krusei ATCC 6258, and Cryptococcus neoformans ATCC 90113, and the bacteria Staphylococcus aureus ATCC 29213 and methicillin-resistant S. aureus ATCC 33591 (MRS). All organisms were tested using modified versions of the CLSI (formerly NCCLS) methods. For all organisms, optical density was used to monitor growth (NCCLS, Reference Method for Broth Dilution Antifungal Susceptibility Testing of Yeasts; Approved Standard M27-A2. National Committee on Clinical Laboratory Standards, 2002 22 (15); and NCCLS, Methods for Dilution Antimicrobial Susceptibility Tests for Bacteria that Grow Aerobically; Approved Standard, Seventh Edition M7-A7. National Committee on Clinical Laboratory Standards, 2006. 26(2)).
(§2) Samples (dissolved in DMSO) were serially-diluted in 20% DMSO/saline and transferred (10 μL) in duplicate to 96 well flat bottom microplates. Inocula were prepared by correcting the OD630 of microbe suspensions in incubation broth [RPMI 1640/0.2% dextrose/0.03% glutamine/MOPS @ pH 6.0 (Cellgro) for Candida spp., Sabouraud Dextrose for C. neoformans, and cation-adjusted Mueller-Hinton (Difco) @ pH 7.3 for Staphylococcus spp. to afford an assay volume of […] and final target inocula of: Candida spp. and C. neoformans: 1.5×10^3, and Staphylococcus spp.: 5.0×10^5 CFU/ml. Final sample test concentrations were 1/100th the DMSO stock concentration. […] All organisms were read at either 530 nm using the Biotek Powerwave XS plate reader (Bio-Tek Instruments, Vermont) prior to and after incubation: Candida spp. at 35° C. for 46-50 h, Staphylococcus spp. at 35° C. for 16-20 h, and C. neoformans at 35° C. for 70-74 h. IC50s (concentrations that afford 50% inhibition relative to controls) were calculated using XLfit 4.2 software (IDBS, Alameda, CA) using fit model 201. The MIC is defined as the lowest test concentration that allows no detectable growth. Minimum fungicidal or bactericidal concentrations were determined by removing 5 μl from each clear (or blue) well, transferring to fresh media, and incubating as previously mentioned. The MFC/MBC is defined as the lowest test concentration that kills the organism (allows no growth).
(§3) Primary Analysis. Samples were tested in duplicate at one test concentration (50 μg/mL), and percent inhibitions were calculated relative to blank and growth controls. Samples showing 50% inhibition in at least one test organism were selected for dose response (Secondary) studies.
(§4) Secondary Analysis. Extracts from the Primary Assay, and first-run pure compounds and column fractions were tested in duplicate at 3 test concentrations (5-fold dilutions). Samples dissolved to 20 mg/mL in DMSO were tested at 200, 40, and 8 μg/mL. Samples dissolved to 2 mg/mL in DMSO were tested at 20, 4, and 0.8 μg/mL.

Experiment [4] relates to methicillin-resistant S. aureus ATCC 33591 (MRS). Briefly: Antibacterial broth dilution assay against MRSA (modified CLSI). The experiment is classed as cell-based, Staphylococcus aureus. As to conditions: for MRSa IC50 / IC50: in vitro; for IC50: converted with molecular weight; for X more potent than ciprofloxacen: molar IC50 ratio versus ciprofloxacen. Here is the method:
as §1, §2, §3, §4

Take “[Zn2(p-CB-cyclam-cyclen)(OAc)][PF6]3•4H2O [CMB030]”: in experiment [1], the “X more potent than Amphotericin B” value is 0.22, the “C. neoformans IC50” value turned out to be 1.380 µg/mL and the IC50 is 1.1 µM. Besides, in experiment [2], the “X more potent than Pentamidine” value came to 0.21, the “L. donovani IC50” value was determined as 31.32 µg/mL and the IC50 is 25 µM. Besides, in the experiment on C. glabrata ATCC 90030, the “C. glabrata IC50” value worked out at 4.190 µg/mL, the IC50 came to 3.35 µM and the “X more potent than Amphotericin B” value was found to be 0.42. Moreover, in experiment [3], the “S. aureus IC50” value was 7.86 µg/mL, the IC50 stood at 6.28 µM and the “X more potent than ciprofloxacen” value stood at 0.04. For the same compound, in experiment [4], the “MRSa IC50” value was 8.760 µg/mL, the IC50 stood at 7 µM and the “X more potent than ciprofloxacen” value is recorded as 0.03.

For the compound “[Ni2(m-cyclam-homocyclen)(OAc)2][PF6]2•H2O [AW050]”, in experiment [1], the “X more potent than Amphotericin B” value came out at 0.25, the “C. neoformans IC50” value came to 1.040 µg/mL and the IC50 worked out at 0.935 µM. For the same compound, in experiment [2], the “X more potent than Pentamidine” value was 0.36, the “L. donovani IC50” value was determined as 16.50 µg/mL and the IC50 is 14.8 µM. In experiment [3], the “S. aureus IC50” value was found to be 8.540 µg/mL, the IC50 came out at 7.68 µM and the “X more potent than ciprofloxacen” value is on record as 0.04. In addition, in experiment [4], the “MRSa IC50” value stood at 4.650 µg/mL, the IC50 turned out to be 4.18 µM and the “X more potent than ciprofloxacen” value came out at 0.05.

For the compound [Cu(Bn2PBCyclam)(OAc)]PF6•5H2O [BME10B], in experiment [1], the “X more potent than Amphotericin B” value came to 0.01, the “C. neoformans IC50” value came to 13.810 µg/mL and the IC50 is 18.8 µM. In addition, in experiment [2], the “X more potent than Pentamidine” value came out at 1.07, the “L. donovani IC50” value amounted to 3.64 µg/mL and the IC50 came out at 4.96 µM. In experiment [3], the “S. aureus IC50” value is 5.670 µg/mL, the IC50 worked out at 7.73 µM and the “X more potent than ciprofloxacen” value turned out to be 0.04. In experiment [4], the “MRSa IC50” value amounted to 5.350 µg/mL, the IC50 worked out at 7.3 µM and the “X more potent than ciprofloxacen” value came to 0.03.

In the case of `c1cc(CN2CCN3CCNCCN(CC3)CC2)ccc1CN1CCN2CCNCCN(CC2)CC1` [JGL19, p-CB-H2Bcyclens], in experiment [1], the “X more potent than Amphotericin B” value worked out at 0.20, the “C. neoformans IC50” value came to 0.590 µg/mL and the IC50 stood at 1.18 µM. Besides, in experiment [2], the “X more potent than Pentamidine” value turned out to be 0.31, the “L. donovani IC50” value was 8.54 µg/mL and the IC50 stood at 17.1 µM. For the same compound, in experiment [3], the “S. aureus IC50” value was 2.900 µg/mL, the IC50 came to 5.81 µM and the “X more potent than ciprofloxacen” value is listed as 0.05. In experiment [4], the “MRSa IC50” value is 1.060 µg/mL, the IC50 is 2.12 µM and the “X more potent than ciprofloxacen” value came to 0.10.

As for “[Ni2(m-CB-Homocyclens)(OAc)1.9][PF6]2.1 [CDG038]”, in experiment [1], the “X more potent than Amphotericin B” value was 0.09, the “C. neoformans IC50” value stood at 3.010 µg/mL and the IC50 is 2.76 µM. For the same compound, in experiment [2], the “X more potent than Pentamidine” value was found to be 0.29, the “L. donovani IC50” value turned out to be 19.92 µg/mL and the IC50 came to 18.3 µM. Also, in experiment [3], the “S. aureus IC50” value amounted to 9.58 µg/mL, the IC50 was found to be 8.8 µM and the “X more potent than ciprofloxacen” value worked out at 0.03. Further, in experiment [4], the “MRSa IC50” value was 9.080 µg/mL, the IC50 is 8.34 µM and the “X more potent than ciprofloxacen” value came out at 0.03.

On to “[Co2(p-CB-cyclam-cyclen)(OAc)2][PF6]2 [CMB027]”, for which, in experiment [1], the “X more potent than Amphotericin B” value came out at 0.32, the “C. neoformans IC50” value was ≤ 0.800 µg/mL and the IC50 is 0.74 µM. Moreover, in experiment [2], the “X more potent than Pentamidine” value is reported as 0.18, the “L. donovani IC50” value is 32.62 µg/mL and the IC50 is 30.2 µM. Also, in the experiment on C. glabrata ATCC 90030, the “C. glabrata IC50” value was found to be 1.320 µg/mL, the IC50 amounted to 1.22 µM and the “X more potent than Amphotericin B” value was determined as 1.16. In experiment [3], the “S. aureus IC50” value was 7.36 µg/mL, the IC50 worked out at 6.81 µM and the “X more potent than ciprofloxacen” value is recorded as 0.04. Moreover, in experiment [4], the “MRSa IC50” value came out at 5.390 µg/mL, the IC50 was 4.99 µM and the “X more potent than ciprofloxacen” value worked out at 0.04.

In the case of “[Fe(Bn2PBCyclen)(C2H3O2)]PF6•1.2NH4PF6 [AW037]”, in experiment [1], the “X more potent than Amphotericin B” value was found to be 0.02, the “C. neoformans IC50” value worked out at 8.400 µg/mL and the IC50 was found to be 9.9 µM. Also, in experiment [2], the “X more potent than Pentamidine” value amounted to 0.17, the “L. donovani IC50” value was 26.63 µg/mL and the IC50 is 31.4 µM. Moreover, in experiment [3], the “S. aureus IC50” value was 4.940 µg/mL, the IC50 was found to be 5.83 µM and the “X more potent than ciprofloxacen” value came to 0.05. Further, in experiment [4], the “MRSa IC50” value came to 9.480 µg/mL, the IC50 came out at 11.2 µM and the “X more potent than ciprofloxacen” value stood at 0.02.

For `CC(=O)[O-].F[P-](F)(F)(F)(F)F.[Co+2].c1ccc(CN2CCCN3CCCN(CCCN(Cc4ccccc4)CC3)CC2)cc1` [DJD21, [Co(Bn2PBCyclam)(OAc)]PF6], in experiment [1], the “X more potent than Amphotericin B” value came out at 0.05, the “C. neoformans IC50” value amounted to 3.510 µg/mL and the IC50 is 5.13 µM. In experiment [2], the “X more potent than Pentamidine” value is listed as 0.26, the “L. donovani IC50” value turned out to be 14.12 µg/mL and the IC50 was found to be 20.7 µM. In addition, in experiment [3], the “S. aureus IC50” value came out at 3.590 µg/mL, the IC50 worked out at 5.25 µM and the “X more potent than ciprofloxacen” value is recorded as 0.05. In addition, in experiment [4], the “MRSa IC50” value amounted to 3.710 µg/mL, the IC50 is 5.43 µM and the “X more potent than ciprofloxacen” value is 0.04.

As to `c1ccc(CN2CCCN3CCCN(CCCN(Cc4ccccc4)CC3)CC2)cc1` [SLK09, Bn2PBCyclam], in experiment [1], the “X more potent than Amphotericin B” value came to 0.11, the “C. neoformans IC50” value came to 0.910 µg/mL and the IC50 is 2.16 µM. Moreover, in experiment [2], the “X more potent than Pentamidine” value came out at 0.87, the “L. donovani IC50” value stood at 2.56 µg/mL and the IC50 turned out to be 6.09 µM. Besides, in experiment [3], the “S. aureus IC50” value came to 2.270 µg/mL, the IC50 came out at 5.4 µM and the “X more potent than ciprofloxacen” value is 0.05. In experiment [4], the “MRSa IC50” value is 4.960 µg/mL, the IC50 was found to be 11.8 µM and the “X more potent than ciprofloxacen” value is listed as 0.02.
